Reference: patent US8932597B2 (priority 2008, dated 2015)

How the values were obtained:
[1] = system: anti-M2 human monoclonal antibody Z3G1; format: binding
HuM2e antibody 23K12 = format: binding, human

Substance | Signal (peptides that show specific binding to Z3G1) [1] | Signal (peptides that bind to 23K21 and 8I10) (HuM2e antibody 23K12) | Signal (peptides that bind to Z3G1) [1]
617 (SLLTEVETPIRNSWGCRCNDSSD; epitope peptide) [compound 617] | 2300 | 807 | –
618 (SLLTEVETPIRNEWGCRCLDSSD; epitope peptide) [compound 618] | – | 807 | 2480
619 (SLLTEVETPIRNEWGCRCNASSD; epitope peptide) [compound 619] | – | 807 | 2454
620 (SLLTEVETPIRFEWGCRCNDSSD; epitope peptide) [compound 620] | 2364 | 806 | –
621 (SLLTEVEFPIRNEWGCRCNDSSD; epitope peptide) [compound 621] | 2297 | 805 | –
622 (SLLTEVETPIRMEWGCRCNDSSD; epitope peptide) [compound 622] | 2385 | 805 | –
623 (SLLTEVETCIRNEWGCRCNDSSD; epitope peptide) [compound 623] | 1992 | 800 | –
626 (SLLTEVETPIRNEWGCRCYDSSD; epitope peptide) [compound 626] | – | 791 | 2385
627 (SLLTEVETPIRIEWGCRCNDSSD; epitope peptide) [compound 627] | 2444 | 789 | –
628 (SLLTEVETPIRNEWGCRCMDSSD; epitope peptide) [compound 628] | – | 786 | 2470
629 (SLLTEVMTPIRNEWGCRCNDSSD; epitope peptide) [compound 629] | 2331 | 783 | –
631 (SLLTEVETPIRKEWGCRCNDSSD; epitope peptide) [compound 631] | 2437 | 782 | –
632 (SLLTEVETPIRNEWGCRCVDSSD; epitope peptide) [compound 632] | – | 775 | 2366
635 (SLLTEVEAPIRNEWGCRCNDSSD; epitope peptide) [compound 635] | 2325 | 769 | –
636 (SLLTEVETPIRNEIGCRCNDSSD; epitope peptide) [compound 636] | 2402 | 768 | –
637 (SLLTEVETPIRNENGCRCNDSSD; epitope peptide) [compound 637] | 2265 | 768 | –
638 (SLLTEVETPIRNEWGTRCNDSSD; epitope peptide) [compound 638] | 2404 | 767 | –
639 (SLLTEVETPIRNEWGCFCNDSSD; epitope peptide) [compound 639] | 2312 | 767 | –
640 (SLLTEVETPIRNKWGCRCNDSSD; epitope peptide) [compound 640] | 2402 | 765 | –

Substance | Signal (peptides that show specific binding to Z3G1) [1] | Signal (peptides that bind to 23K21 and 8I10) (HuM2e antibody 23K12) | Signal (peptides that bind to Z3G1) [1]
641 (SLLTEVETPIRNELGCRCNDSSD; epitope peptide) [compound 641] | 2436 | 765 | –
644 (SLLTEVETPIRNEWGVRCNDSSD; epitope peptide) [compound 644] | 2444 | 764 | –
645 (SLLTEVVTPIRNEWGCRCNDSSD; epitope peptide) [compound 645] | 1492 | 763 | –
646 (SLLTEVEGPIRNEWGCRCNDSSD; epitope peptide) [compound 646] | 2341 | 763 | –
647 (SLLTEVETPIRNEWGHRCNDSSD; epitope peptide) [compound 647] | 2113 | 763 | –
648 (SLLTEVETPIRNEWGKRCNDSSD; epitope peptide) [compound 648] | 2295 | 762 | –
649 (SLLTEVETTIRNEWGCRCNDSSD; epitope peptide) [compound 649] | 2295 | 760 | –
650 (SLLTEVETPVRNEWGCRCNDSSD; epitope peptide) [compound 650] | 2331 | 758 | –
651 (SLLTEVETPIRNEWGCRCHDSSD; epitope peptide) [compound 651] | – | 758 | 2350
652 (SLLTEVEEPIRNEWGCRCNDSSD; epitope peptide) [compound 652] | 2362 | 757 | –
653 (SLLTEVETIIRNEWGCRCNDSSD; epitope peptide) [compound 653] | 2096 | 756 | –
654 (SLLTEVETPIRYEWGCRCNDSSD; epitope peptide) [compound 654] | 2202 | 755 | –
656 (SLLTEVETPIWNEWGCRCNDSSD; epitope peptide) [compound 656] | 2250 | 753 | –
657 (SLLTEVDTPIRNEWGCRCNDSSD; epitope peptide) [compound 657] | 2095 | 751 | –
658 (SLLTEVYTPIRNEWGCRCNDSSD; epitope peptide) [compound 658] | 1092 | 751 | –
659 (SLLTEVETPIRNEWGARCNDSSD; epitope peptide) [compound 659] | 2396 | 750 | –
661 (SLLTEVETPIRQEWGCRCNDSSD; epitope peptide) [compound 661] | 2367 | 748 | –
662 (SLLTEVETPIRNFWGCRCNDSSD; epitope peptide) [compound 662] | 2417 | 747 | –
663 (MCLCTCVGMSLLTEV; epitope peptide) [compound 663] | – | 746 | 2509

Substance | Signal (peptides that show specific binding to Z3G1) [1] | Signal (peptides that bind to 23K21 and 8I10) (HuM2e antibody 23K12) | Signal (peptides that bind to Z3G1) [1]
664 (SLLTEVETPIRNEWGNRCNDSSD; epitope peptide) [compound 664] | 2328 | 746 | –
665 (SLLTEVETPFRNEWGCRCNDSSD; epitope peptide) [compound 665] | 2229 | 745 | –
666 (SLLTEVETPIRNAWGCRCNDSSD; epitope peptide) [compound 666] | 2334 | 743 | –
667 (SLLTEVETPIRNEWGIRCNDSSD; epitope peptide) [compound 667] | 2211 | 739 | –
668 (SLLTEVETPIRNEWGYRCNDSSD; epitope peptide) [compound 668] | 2410 | 739 | –
670 (SLLTEVETWIRNEWGCRCNDSSD; epitope peptide) [compound 670] | 2146 | 736 | –
671 (SLLTEVETPIRNEPGCRCNDSSD; epitope peptide) [compound 671] | 2279 | 735 | –
672 (SLLTEVETPIRNEWGRRCNDSSD; epitope peptide) [compound 672] | 2372 | 735 | –
674 (SLLTEVETPIRNEWGCRCTDSSD; epitope peptide) [compound 674] | – | 733 | 2253
675 (SLLTEVNTPIRNEWGCRCNDSSD; epitope peptide) [compound 675] | 2150 | 732 | –
676 (SLLTEVETPIENEWGCRCNDSSD; epitope peptide) [compound 676] | 2252 | 731 | –
677 (SLLTEVETPIQNEWGCRCNDSSD; epitope peptide) [compound 677] | 2372 | 731 | –
678 (SLLTEVETPIRSEWGCRCNDSSD; epitope peptide) [compound 678] | 2322 | 730 | –
679 (SLLTEVETPIRNEWGCECNDSSD; epitope peptide) [compound 679] | 2148 | 730 | –
680 (SLLTEVETPIVNEWGCRCNDSSD; epitope peptide) [compound 680] | 2366 | 729 | –
681 (SLLTEVETPIRNEWACRCNDSSD; epitope peptide) [compound 681] | 2431 | 729 | –
682 (SLLTEVETPIRNEWGSRCNDSSD; epitope peptide) [compound 682] | 2346 | 729 | –
683 (SLLTEVETPIRNEWGCACNDSSD; epitope peptide) [compound 683] | 2301 | 729 | –
